US4683230A, “BMY-28121, a new antitumor antibiotic” (Bristol-Myers Company, priority 1985, dated 1987)
Converted amounts (≈) assume the structure as drawn.

Tests used:
[1] = test system: Clostridium perfringens A22787; assay: microbe, parasite or virus in culture; assay type: cell-based
P388 leukemia = conditions: mouse, in vivo
anaerobic bacteria = assay type: cell-based
[2] = Acute toxicity in mice, single intraperitoneal administration; parameters: species or system mice (male ddY strain); conditions: mouse, in vivo, ip, male ddY mice
B16 melanoma = assay: Antitumor activity in mice, melanotic melanoma B16; conditions: ip, once daily for 9 days, circled = significant antitumor effect

Work on `CC1(C)S[C@@H]2[C@H](NC(=O)[C@H](N)c3ccccc3)C(=O)N2[C@H]1C(=O)O` [Ampicillin] yielded an MIC [1] of 0.1 µg/mL (≈ 0.286 µM).

In the case of `COc1cccc2c1N[C@H](O)[C@@H]1CC(/C=C/C(=O)N(C)C)=CN1C2=O` [BMY-28121A], the “antitumor activity against experimental tumors in mice, eg. P388 leukemia” value (P388 leukemia) is reported as “marked antitumor activity”.

With `COc1cccc2c1N[C@H](OC)[C@@H]1CC(/C=C/C(=O)N(C)C)=CN1C2=O` [BMY-28121B, 1,10,11,11a-tetrahydro-9,11-dimethoxy-5H-pyrrolo[2,1-c][1,4]benzodiazepine-5-one-2-N,N-dimethylacrylamide] the “solubility in ethyl acetate and ethyl ether” value was “slightly soluble”, the “solubility in methanol, ethanol, chloroform, pyridine, and dimethylformamide” value was “readily soluble” and the solubility in n-hexane was “practically insoluble”. For the same compound, the solubility in water was “practically insoluble”, the “antitumor activity against experimental tumors in mice, eg. P388 leukemia” value (P388 leukemia) was “marked antitumor activity” and the “inhibition of anaerobic bacteria” value (anaerobic bacteria) was “inhibited all”. It also gave an LD50 [2] of 0.81 mg/kg.

With `CO[C@@]12[C@H](COC(N)=O)C3=C(C(=O)C(C)=C(N)C3=O)N1C[C@@H]1N[C@@H]12` [Mitomycin C] the “T/C % of MST” value (B16 melanoma; 0.13 mg/kg/day) was 124% and the “T/C % of MST” value (B16 melanoma; 0.25 mg/kg/day) was 136%.
